For assay [1], the target named is T1, Tyrosine-protein phosphatase non-receptor type 11 (Homo sapiens, UniProt Q06124).
T1 sequence (Q06124 whole entry): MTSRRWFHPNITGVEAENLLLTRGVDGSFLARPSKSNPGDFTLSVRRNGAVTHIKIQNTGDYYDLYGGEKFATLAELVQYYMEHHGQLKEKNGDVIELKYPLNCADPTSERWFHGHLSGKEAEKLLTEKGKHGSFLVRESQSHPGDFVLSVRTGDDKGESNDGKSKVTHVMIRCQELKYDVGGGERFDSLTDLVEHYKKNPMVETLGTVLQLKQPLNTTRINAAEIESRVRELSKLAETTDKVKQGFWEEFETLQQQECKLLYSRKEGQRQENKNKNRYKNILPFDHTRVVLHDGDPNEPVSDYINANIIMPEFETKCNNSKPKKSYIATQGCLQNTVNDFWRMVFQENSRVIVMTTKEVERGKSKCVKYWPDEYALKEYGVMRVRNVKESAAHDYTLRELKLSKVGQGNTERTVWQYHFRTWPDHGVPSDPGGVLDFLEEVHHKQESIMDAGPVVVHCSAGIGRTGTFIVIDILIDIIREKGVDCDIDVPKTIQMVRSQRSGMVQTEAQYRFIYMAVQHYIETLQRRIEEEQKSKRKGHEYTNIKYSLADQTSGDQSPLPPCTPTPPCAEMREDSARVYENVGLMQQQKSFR
As to the kind of experiment: Antagonist activity at SHP2 in human KYSE520 cells assessed as inhibition of ERK1/2 phosphorylation incubated for 2 hrs. The class given is cell-based.

Assay [2] has as its target T1, Tyrosine-protein phosphatase non-receptor type 11. Kind of assay: Antagonist activity at recombinant human N-terminal His6-tagged full length SHP2 expressed in Escherichia coli using DiFMUP as substrate measured after 60 mins in presence of IRS1-2pY peptide by fluorescence assay.

By IC50 is commonly meant the concentration that inhibits the measured activity by half. In the case of `Cc1c(N2CCC3(CC2)Cc2ccccc2[C@H]3N)nc(C)n(-c2ccc(F)c(Cl)c2Cl)c1=O`, the IC50 in assay [1] stood at 4 nM. Regarding `Cc1c(N2CCC3(CC2)Oc2ccccc2[C@H]3N)nc(C)n(-c2cccc(Cl)c2Cl)c1=O`, the IC50 in assay [1] came to 6.6 nM. Still for that read-out and setting: the result for `Cc1nc(N2CCC3(CC2)Cc2ccccc2[C@H]3N)cc(=O)n1-c1cccc(Cl)c1Cl` reads 5 nM; that for `Cc1c(F)ccc(-n2c(C)nc(N3CCC4(CC3)Cc3ccccc3[C@H]4N)c(C)c2=O)c1Cl`, 7 nM. Consider `Cc1c(N2CCC3(CC2)Cc2ncccc2[C@@H]3N)nc(C)n(-c2cccc(Cl)c2Cl)c1=O`, for which the results for the 50% inhibitory concentration (IC50) in assay [2] and in assay [1] were 1 nM and 5 nM, respectively. Consider `Cc1c(N2CCC3(CC2)Cc2ccccc2[C@H]3N)nc(C)n(-c2cccc(Cl)c2Cl)c1=O`, for which the IC50 in assay [1] was 2 nM.
